Paper PMC6225178 (Molecules : A Journal of Synthetic Chemistry and Natural …, 2018)

Assays:
[1] = Oxidation inhibition of the o/w emulsion (TBARS); settings: for Inhibition of Oxidation of o/w Emulsion: determined at 100 µM, oxidation induced with Mohr's salt 5 mM, TBARS, n.a. ^c = no protection detected; for protection against the induced oxidation (in words): o/w emulsion model
Experimental: The emulsion containing 15 mg of sorbitan sesquioleate, 50 mg of flaxseed oil, and 2 mL of 10 mM Tris-HCl buffer, pH 7.4, was prepared by the method. Determination of the oxidation inhibition of the o/w emulsion was carried out according to a procedure described previously, using 20 μL of the 1:1 (v/v) buffer-diluted emulsion, methanolic solution of each compound (final concentration 100 μM), and ammonium iron(II) sulfate hexahydrate (Mohr′s salt) (5 mM). Thiobarbituric acid reacting substances (TBARS) were determined according to [44].

[2] = DPPH assay; settings: for IC50: 30 min incubation at room temperature, absorbance 517 nm, n.a. ^c = no protection detected, n.a. ^d = IC50 > 5 mM
Experimental: The 2,2-diphenyl-1-picrylhydrazyl (DPPH) assay was performed using a previously reported method with a modification. A series of samples consisting of 900 μL of the 0.04 mg/mL methanolic solution of DPPH and different concentrations of the compounds (100 μL) were prepared. Then, the absorbance at 517 nm was measured after a 30 min incubation at room temperature. The half maximal inhibitory concentration (IC50) was used as an indicating measure of the scavenging activity.

[3] = tested on: normal human dermal fibroblast (NHDF) cell line; assay: Cell viability assay (MTT) in the NHDF cell line; assay type: cell-based; settings: highest concentration
Experimental: The cytotoxicity test was performed as described in [44] using the NHDF cell line treated with the methanolic solution of the tested compounds to obtain the final concentrations of 12.5, 25, 50, 100, 200, or 250 µM, and incubation for 24 and 48 h. Cell viability was assessed by the MTT method.

| Compound | Inhibition of Oxidation of o/w Emulsion [1] | IC50 [2] | effect on viability of NHDF cells after 48 h (in words) [3] | antioxidant activity compared with caffeic acid (in words) [1] | protection against the induced oxidation (in words) [1] | DPPH scavenging ability (in words) [2] |
| --- | --- | --- | --- | --- | --- | --- |
| COc1cc(/C=C/C(C)=O)ccc1O [Compound 20, 4-(3′-methoxy-4′-hydroxyphenyl)-3(E)-buten-2-one] | 7.9 ± 2.1 | 61.8 µM | this effect after 48 h was not clearly noticeable |  |  |  |
| COC(=O)/C=C/c1ccc(O)c(O)c1O [Compound 12, 3-(2′,3′,4′-trihydroxyphenyl)-(E)-propenoic acid methyl ester] | 55.5 ± 2 | 18.6 µM |  | higher antioxidant activity than caffeic acid | highest protection against the induced oxidation |  |
| COC(=O)/C=C/c1cc(O)c(O)cc1O [Compound 13, 3-(2′,4′,5′-trihydroxyphenyl)-(E)-propenoic acid methyl ester] | 38.6 ± 2.3 | 53.3 µM | this effect after 48 h was not clearly noticeable | higher antioxidant activity than caffeic acid | highest protection against the induced oxidation |  |
| COC(=O)/C=C/c1ccc(O)cc1 [Compound 8, 3-(4′-Hydroxyphenyl)-(E)-propenoic acid methyl ester] | 22.7 ± 6.4 |  |  |  |  | no scavenging ability |
| O=C(O)/C=C/c1ccc(O)c(O)c1 [CA, caffeic acid, reference compound] | 26.1 ± 2.9 | 32.2 µM |  |  |  |  |
| COC(=O)/C=C/c1ccccc1O [Compound 9, 3-(2.′-Hydroxyphenyl)-(E)-propenoic acid methyl ester] | 2.6 ± 1.5 |  |  |  |  | no scavenging ability |
| CC(=O)/C=C/c1ccc(O)cc1 [Compound 16, 4-(4′-hydroxyphenyl)-3(E)-buten-2-one] | 6.8 ± 4.4 |  |  |  |  | no scavenging ability |
| CC(=O)/C=C/c1ccccc1O [Compound 6, 4-(2′-hydroxyphenyl)-3(E)-buten-2-one] |  |  |  |  |  | no scavenging ability |
| COC(=O)/C=C/c1ccc(O)cc1O [Compound 11, 3-(2′,4′-dihydroxyphenyl)-(E)-propenoic acid methyl ester] | 33.7 ± 6.5 | 1020 µM |  |  |  |  |
| COC(=O)/C=C/c1cccc(O)c1 [Compound 10, 3-(3′-Hydroxyphenyl)-(E)-propenoic acid methyl ester] | 18.4 ± 2.2 |  |  |  |  | no scavenging ability |
| CC(=O)/C=C/c1cccc(O)c1 [Compound 15, 4-(3′-hydroxyphenyl)-3(E)-buten-2-one] |  |  |  |  |  | no scavenging ability |
| CC(=O)/C=C/c1ccc(O)c(O)c1O [Compound 18, 4-(2′,3′,4′-trihydroxyphenyl)-3(E)-buten-2-one] | 28.6 ±4 | 16.8 µM |  | higher antioxidant activity than caffeic acid | highest protection against the induced oxidation |  |
| COC(=O)/C=C/c1ccc(O)c(OC)c1 [Compound 14, 3-(4′-hydroxy-3-metoxyphenyl)-(E)-propenoic acid methyl ester] | 14.8 ± 2 | 58.9 µM |  |  |  |  |
| CC(=O)/C=C/c1ccc(O)cc1O [Compound 17, 4-(2′,4′-dihydroxyphenyl)-3(E)-buten-2-one] | 4.6 ± 1.3 | 688 µM |  |  |  |  |
